Data reported in patent publication US20150344535A1, “NEUROTROPHIN-TYROSINE KINASE RECEPTOR SIGNALING” (THE UNIVERSITY OF QUEENSLAND, priority 2012, published 2015).

Experiments:
[1] = Long term potentiation (LTP) in the hippocampus in vivo; parameters: species or system mouse
Source text: In further support of this, LTP was induced in mice by standard methods, as previously described: Kameda et al. Transl Psychiatry. 2012 Jan. 31; 2:e72. Activation of latent precursors in the hippocampus is dependent on long-term potentiation. […] BDNF acting via TrkB is well established to enhance this type of synaptic activity, including specifically hippocampal late-phase LTP at CA1-CA3 synapses (as measured here), and mice with reduced BDNF secretion show deficits in this LTP (e.g. Y. Lu et al., 2008; An et al., 2008; Ninan et al., 2010). […] In FIG. 13, c29 10 mg/kg: n=3 animals; c29 5 mg/kg: n=2 animals; scrambled 10 mg/kg: n=3 animals, c57: n=2 animals.

[2] = test system: C7-8 spinal cord motor neurons; test: Motor neuron axotomy (median and ulnar nerve) in neonatal rat; type: in vivo; conditions: four day old rat, unilateral axotomy of the ulnar nerve, FIG. 7E
Experimental: Median and ulnar nerve axotomy was performed on 4 day-old Wistar rat pups as previously described (Cheema et al., 1996). Peptides (c29 and vehicle only; 100 nM) were applied via a 1 mm^3 cube of pluronic gel foam that was sutured to the proximal axonal stump (Cheema et al., 1996). After 5 days the animals were perfused with a 4% solution of paraformaldehyde in phosphate buffer. Cervical spinal cords were removed, after which serial sections were cut at 40 μm, mounted onto gelatin-coated slides and stained in 0.1% cresyl violet. Details of the counting procedure have been described previously (Cheema et al., 1994).
We next investigated whether c29 could prevent motor neuron death following growth factor withdrawal in vivo using a neonatal rat axotomy model. Following unilateral median and ulnar nerve transections of postnatal day 4 (P4) rat pups, c29 or the vehicle protein transduction domain (PTD4) was applied to the proximal site of transaction in a small cube of gel foam. After a 5-day recovery, the number of surviving C7-8 spinal cord motor neurons relative to the contralateral side was determined by histological counts. Such an axotomy causes 50% of the ipsilateral motor neurons to die (Cheema et al., 1996), with control peptide treatment having no effect on this degree of cell death (FIG. 7E, F). […]

[3] = test system: motor neurons; test: Motor neuron survival in SOD1G93A mutant mice; type: in vivo, mouse
Experimental: To determine whether c29 could reduce neuron death in a motor neuron mouse model, 60 day postnatal SOD1G93A mutant mice were injected subcutaneously by osmotic pump with 5 mg/kg of TAT-c29, scrambled peptide, or the peptide vehicle. After 115 days postnatal, neuron survival in the […] was determined.

## YARAAARNARAKRWNSCKQNKQGANSRPVNQTPPPEGEKL (TAT-c29 - Fusion of TAT with c29)
[1]; 5 mg/kg I.P, after the high frequency train
  LTP in the hippocampus: transient enhancement of LTP lasting only the first 6 minutes
[1]; 10 mg/kg i.p., vs scrambled peptide- or vehicle-treated animals
  LTP in the hippocampus: enhanced LTP
[2]
  protection from motor neuron loss: significant protection from motor neuron loss
[3]; 5 mg/kg subcutaneously by osmotic pump from 60 days postnatal, read at 115 days postnatal
  enhancement of motor neuron survival: 30%
[3]; 5 mg/kg, 115 days postnatal, equivalent of wild-type
  motor neuron number: 10 motor neurons per section per dorsal horn
